Assay results taken from patent US20250214991A1 (Oncopia Therapeutics, Inc. d/b/a/ SK Life Science Labs, priority 2022, published 2025).
Where a name gives a salt, the structure may show the parent alone.

Experiments:
Assay type in all cases: cell-based
IKZF2 [1] = molecular target: T1, IKZF2 (Homo sapiens (Human), UniProt Q96SW2+Q9UKS7); assay: In vitro IKZF2 HiBit Assay (HEK293T Flp-in-HiBiT cells); details: HEK293T Flp-in-HiBiT cells, 6 hrs incubation; for DC50: read-out: IKZF2 HiBit DC50; for Dmax: HEK-293T, read-out: IKZF2 HiBit Dmax (%)
T1 sequence (Q9UKS7 whole entry): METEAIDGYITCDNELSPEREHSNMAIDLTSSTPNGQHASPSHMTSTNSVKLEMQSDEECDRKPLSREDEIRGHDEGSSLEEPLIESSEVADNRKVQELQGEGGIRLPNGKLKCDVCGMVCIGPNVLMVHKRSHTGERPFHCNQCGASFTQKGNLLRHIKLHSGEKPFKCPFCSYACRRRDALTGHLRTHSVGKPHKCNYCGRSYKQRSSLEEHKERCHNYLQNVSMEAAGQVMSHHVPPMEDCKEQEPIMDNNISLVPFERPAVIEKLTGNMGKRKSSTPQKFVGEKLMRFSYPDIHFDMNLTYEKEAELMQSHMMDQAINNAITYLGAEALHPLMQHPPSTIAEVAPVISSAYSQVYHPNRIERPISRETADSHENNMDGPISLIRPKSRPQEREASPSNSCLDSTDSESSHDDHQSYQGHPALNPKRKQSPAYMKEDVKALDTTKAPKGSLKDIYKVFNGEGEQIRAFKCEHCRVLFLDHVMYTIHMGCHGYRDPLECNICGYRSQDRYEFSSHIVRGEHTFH
T1 sequence (Q96SW2 whole entry): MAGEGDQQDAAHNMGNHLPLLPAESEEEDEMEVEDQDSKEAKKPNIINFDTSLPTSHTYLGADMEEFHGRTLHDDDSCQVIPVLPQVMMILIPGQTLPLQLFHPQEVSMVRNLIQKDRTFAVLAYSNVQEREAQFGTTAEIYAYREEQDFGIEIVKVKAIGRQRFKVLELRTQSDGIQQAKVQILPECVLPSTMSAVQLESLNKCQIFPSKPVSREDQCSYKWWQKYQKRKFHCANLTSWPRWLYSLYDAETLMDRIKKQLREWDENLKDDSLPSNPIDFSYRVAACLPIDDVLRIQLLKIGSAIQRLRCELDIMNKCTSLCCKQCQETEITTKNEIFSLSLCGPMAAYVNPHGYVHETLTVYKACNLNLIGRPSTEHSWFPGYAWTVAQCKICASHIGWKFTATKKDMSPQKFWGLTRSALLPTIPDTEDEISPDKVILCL
T1 sequence (Q16531 2-1140 partner): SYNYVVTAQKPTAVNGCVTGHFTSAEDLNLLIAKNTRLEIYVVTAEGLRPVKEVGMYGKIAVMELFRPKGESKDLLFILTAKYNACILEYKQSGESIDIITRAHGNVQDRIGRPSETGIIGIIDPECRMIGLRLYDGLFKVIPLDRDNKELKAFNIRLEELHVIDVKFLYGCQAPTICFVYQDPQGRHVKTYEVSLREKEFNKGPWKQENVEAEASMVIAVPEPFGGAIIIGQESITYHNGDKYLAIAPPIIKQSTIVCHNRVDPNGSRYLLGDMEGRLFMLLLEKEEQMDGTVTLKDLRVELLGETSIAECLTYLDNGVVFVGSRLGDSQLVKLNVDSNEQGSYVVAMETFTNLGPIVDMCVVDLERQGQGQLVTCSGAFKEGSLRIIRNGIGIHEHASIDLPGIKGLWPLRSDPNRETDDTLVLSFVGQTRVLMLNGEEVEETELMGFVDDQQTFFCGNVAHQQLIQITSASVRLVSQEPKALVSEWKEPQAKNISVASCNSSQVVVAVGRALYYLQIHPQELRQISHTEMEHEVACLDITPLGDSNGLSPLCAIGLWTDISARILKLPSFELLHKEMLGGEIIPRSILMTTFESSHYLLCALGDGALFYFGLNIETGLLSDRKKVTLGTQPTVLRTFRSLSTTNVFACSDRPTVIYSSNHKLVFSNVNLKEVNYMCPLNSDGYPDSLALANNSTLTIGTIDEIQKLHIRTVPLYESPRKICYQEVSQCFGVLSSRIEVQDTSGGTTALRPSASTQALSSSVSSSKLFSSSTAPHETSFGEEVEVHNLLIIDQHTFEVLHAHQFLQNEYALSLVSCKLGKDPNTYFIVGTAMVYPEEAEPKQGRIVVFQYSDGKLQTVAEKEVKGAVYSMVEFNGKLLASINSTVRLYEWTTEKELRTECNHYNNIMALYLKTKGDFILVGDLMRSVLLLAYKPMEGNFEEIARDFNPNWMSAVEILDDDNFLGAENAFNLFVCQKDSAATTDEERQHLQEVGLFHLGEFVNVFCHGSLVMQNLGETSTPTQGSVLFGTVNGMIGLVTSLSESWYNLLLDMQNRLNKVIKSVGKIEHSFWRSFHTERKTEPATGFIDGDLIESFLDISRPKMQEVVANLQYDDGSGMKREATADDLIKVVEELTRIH
Procedure, shortened: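 HEK293T Flp-in cells carrying an endogenous N-terminal HiBiT tag on IKZF2 were exposed to compound for 6 h at 0.1% DMSO. The dilution series was 11 doses at 3-fold, diluted from 1 mM. Nano-Glo HiBiT lytic luminescence, normalized to DMSO, gave DC50 for 50% degradation and Dmax across the concentration range, both reported in letter bins.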

IKZF2 [2] = molecular target: T1, IKZF2; assay: In vitro IKZF2 FACS Assay in Jurkat cells; details: 24 hrs; for DC50: half maximal degradation concentration; for Dmax: maximal degradation percentage
Procedure: In vitro IKZF2 FACS Assay
DC50, A: <1 nM; B: 1-10 nM; C: 10-100 nM; D: 100-1000 nM; E: >1000 nM. Dmax, A: >80%; B: 60-80%; C: 40-60%; D: 20-40%; E: <20%.

IKZF1 = IKZF1 (Homo sapiens (Human), UniProt Q13422+Q96SW2); assay: In vitro IKZF1 HiBit Assay (HEK293T Flp-in-HiBiT-IKZF1 stable cell line); details: HEK293T Flp-in-HiBiT-IKZF1 stable cell line, 6 hrs incubation; for DC50: read-out: IKZF1 HiBit DC50; for Dmax: HEK-293T, read-out: IKZF1 HiBit Dmax (%)
IKZF1, sequence (Q13422 whole entry): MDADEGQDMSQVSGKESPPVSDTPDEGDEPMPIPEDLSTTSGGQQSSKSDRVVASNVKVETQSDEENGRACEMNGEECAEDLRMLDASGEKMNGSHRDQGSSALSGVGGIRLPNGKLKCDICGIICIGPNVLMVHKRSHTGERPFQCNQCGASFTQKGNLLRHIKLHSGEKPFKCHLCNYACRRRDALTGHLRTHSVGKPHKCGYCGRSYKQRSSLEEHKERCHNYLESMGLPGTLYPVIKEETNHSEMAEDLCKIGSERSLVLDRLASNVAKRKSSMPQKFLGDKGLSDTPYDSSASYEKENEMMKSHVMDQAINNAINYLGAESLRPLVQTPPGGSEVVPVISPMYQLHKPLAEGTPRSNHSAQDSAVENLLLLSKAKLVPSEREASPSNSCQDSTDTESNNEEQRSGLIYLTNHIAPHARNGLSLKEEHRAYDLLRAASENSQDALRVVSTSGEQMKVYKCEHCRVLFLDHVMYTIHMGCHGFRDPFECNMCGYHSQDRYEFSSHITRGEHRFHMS
IKZF1, sequence (Q96SW2 whole entry): as the sequence (Q96SW2 whole entry) above
IKZF1, sequence (Q16531 2-1140 partner): as the sequence (Q16531 2-1140 partner) above
Procedure, shortened: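 HEK293T Flp-in cells carrying N-terminal HiBiT-tagged IKZF1 were exposed to compound (0.1% DMSO) for 6 h at 3000 cells/well. HiBiT luminescence was read after lytic LgBiT detection. DC50 and Dmax were taken from DMSO-normalized dose-response curves.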

SMILES	DC50 (IKZF2 [1])	Dmax (IKZF2 [1])	DC50 (IKZF2 [2])	Dmax (IKZF2 [2])	DC50 (IKZF1)	Dmax (IKZF1)
CN1CC(n2ccc3c(CN4CCCC4)cc(-c4ccc5c(c4F)CN(C4CCC(=O)NC4=O)C5=O)nc32)C1 (stereo not drawn) [Example 260, 3-(4-fluoro-5-(1-(1-methylazetidin-3-yl)-4-(pyrrolidin-1-ylmethyl)-1H-pyrrolo[2,3-b]pyridin-6-yl)-1-oxoisoindolin-2-yl) piperidine-2,6-dione]	1 to 10 nM	> 80%	1 to 10 nM	> 80%	10 to 100 nM	60 to 80%
O=C1CCC(N2Cc3c(ccc(-c4cc(CN5CCCC5)c5[nH]nc(NC6CCC6)c5n4)c3F)C2=O)C(=O)N1 (stereo not drawn) [Example 295, 1.3-(5-(3-(cyclobutylamino)-7-(pyrrolidin-1-ylmethyl)-1H-pyrazolo[4,3-b]pyridin-5-yl)-4-fluoro-1-oxoisoindolin-2-yl) piperidine-2,6-dione]	< 1 nM	> 80%	1 to 10 nM	> 80%	10 to 100 nM	40 to 60%
O=C1CCC(N2Cc3cc(-c4cc(CN5CCCC5)c5cnn(C6COC6)c5n4)ccc3C2=O)C(=O)N1 (stereo not drawn) [Example 203, 3-(5-(1-(oxetan-3-yl)-4-(pyrrolidin-1-ylmethyl)-1H-pyrazolo[3,4-b]pyridin-6-yl)-1-oxoisoindolin-2-yl) piperidine-2,6-dione]	1 to 10 nM	> 80%	1 to 10 nM	> 80%	10 to 100 nM	20 to 40%
CC(C)Nc1n[nH]c2c(CN3CCC(C(F)(F)F)CC3)cc(-c3ccc4c(c3F)CN(C3CCC(=O)NC3=O)C4=O)nc12 (stereo not drawn) [Example 290, 3-(4-fluoro-5-(3-(isopropylamino)-7-((4-(trifluoromethyl)piperidin-1-yl)methyl)-2H-pyrazolo[4,3-b]pyridin-5-yl)-1-oxoisoindolin-2-yl) piperidine-2,6-dione]	1 to 10 nM	60 to 80%	10 to 100 nM	60 to 80%	> 10000 nM	< 20%
O=C1CCC(N2Cc3cc(-c4cc(CN5CCCC5)c5cnn(C6CCC6)c5n4)ccc3C2=O)C(=O)N1 (stereo not drawn) [Example 206, 3-(5-(1-cyclobutyl-4-(pyrrolidin-1-ylmethyl)-1H-pyrazolo[3,4-b]pyridin-6-yl)-1-oxoisoindolin-2-yl) piperidine-2,6-dione]	1 to 10 nM	> 80%	1 to 10 nM	> 80%	> 10000 nM	< 20%
COC1CC(n2ccc3c(CN4CCCC4)cc(-c4ccc5c(c4)CN(C4CCC(=O)NC4=O)C5=O)nc32)C1 (stereo not drawn) [Example 255, 3-(5-(1-(3-methoxycyclobutyl)-4-(pyrrolidin-1-ylmethyl)-1H-pyrrolo[2,3-b]pyridin-6-yl)-1-oxoisoindolin-2-yl) piperidine-2,6-dione]	1 to 10 nM	> 80%	1 to 10 nM	> 80%	10 to 100 nM	20 to 40%
Nc1n[nH]c2c(CN3CCCC3)cc(-c3ccc4c(c3)CN(C3CCC(=O)NC3=O)C4=O)nc12 (stereo not drawn) [Example 151, 3-(5-(3-amino-7-(pyrrolidin-1-ylmethyl)-1H-pyrazolo[4,3-b]pyridin-5-yl)-1-oxoisoindolin-2-yl) piperidine-2,6-dione]	1 to 10 nM	> 80%	1 to 10 nM	> 80%	> 10000 nM	< 20%
Cn1cc(-n2ccc3c(CN4CCCC4)cc(-c4ccc5c(c4)CN(C4CCC(=O)NC4=O)C5=O)nc32)cn1 (stereo not drawn) [Example 248, 3-(5-(1-(1-methyl-1H-pyrazol-4-yl)-4-(pyrrolidin-1-ylmethyl)-1H-pyrrolo[2,3-b]pyridin-6-yl)-1-oxoisoindolin-2-yl) piperidine-2,6-dione]	< 1 nM	> 80%	< 1 nM	> 80%	100 to 1000 nM	20 to 40%
O=C1CCC(N2Cc3c(ccc(-c4nc5c(ccn5C5COC5)c(CN5CCCC5)c4Cl)c3F)C2=O)C(=O)N1 (stereo not drawn) [Example 270, 3-(5-(5-chloro-1-(oxetan-3-yl)-4-(pyrrolidin-1-ylmethyl)-1H-pyrrolo[2,3-b]pyridin-6-yl)-4-fluoro-1-oxoisoindolin-2-yl) piperidine-2,6-dione]	< 1 nM	> 80%	1 to 10 nM	> 80%	> 10000 nM	< 20%
CNc1n[nH]c2c(CN3CCCC3)cc(-c3ccc4c(c3)CN(C3CCC(=O)NC3=O)C4=O)nc12 (stereo not drawn) [Example 181, 3-(5-(3-(methylamino)-7-(pyrrolidin-1-ylmethyl)-1H-pyrazolo[4,3-b]pyridin-5-yl)-1-oxoisoindolin-2-yl) piperidine-2,6-dione]	1 to 10 nM	> 80%	1 to 10 nM	> 80%	10 to 100 nM	40 to 60%
O=C1CCC(N2Cc3c(ccc(-c4cc(CN5CCC6(CC5)COC6)c5ccn(C6CS(=O)(=O)C6)c5n4)c3F)C2=O)C(=O)N1 (stereo not drawn) [Example 272, 3-(5-(4-((2-oxa-7-azaspiro[3.5]nonan-7-yl)methyl)-1-(1,1-dioxidothietan-3-yl)-1H-pyrrolo[2,3-b]pyridin-6-yl)-4-fluoro-1-oxoisoindolin-2-yl) piperidine-2,6-dione]	1 to 10 nM	> 80%	1 to 10 nM	> 80%	10 to 100 nM	40 to 60%
COC[C@@H]1CCCN1Cc1cc(-c2ccc3c(c2)CN(C2CCC(=O)NC2=O)C3=O)nc2c1ccn2C1COC1 (stereo partly drawn) [Example 250, 3-(5-(4-(((S)-2-(methoxymethyl)pyrrolidin-1-yl)methyl)-1-(oxetan-3-yl)-1H-pyrrolo[2,3-b]pyridin-6-yl)-1-oxoisoindolin-2-yl) piperidine-2,6-dione]	1 to 10 nM	60 to 80%	1 to 10 nM	60 to 80%	> 10000 nM	< 20%
Cc1nn(C2COC2)c2nc(-c3ccc4c(c3)CN(C3CCC(=O)NC3=O)C4=O)cc(CN3CCCC3)c12 (stereo not drawn) [Example 246, 3-(5-(3-methyl-1-(oxetan-3-yl)-4-(pyrrolidin-1-ylmethyl)-1H-pyrazolo[3,4-b]pyridin-6-yl)-1-oxoisoindolin-2-yl) piperidine-2,6-dione]	1 to 10 nM	> 80%	1 to 10 nM	> 80%	> 10000 nM	< 20%
CC(C)Nc1n[nH]c2c(CN3CCC4(CC3)COC4)cc(-c3ccc4c(c3F)CN(C3CCC(=O)NC3=O)C4=O)nc12 (stereo not drawn) [Example 284, 3-(5-(7-((2-oxa-7-azaspiro[3.5]nonan-7-yl)methyl)-3-(isopropylamino)-1H-pyrazolo[4,3-b]pyridin-5-yl)-4-fluoro-1-oxoisoindolin-2-yl) piperidine-2,6-dione]	1 to 10 nM	> 80%	10 to 100 nM	60 to 80%	10 to 100 nM	20 to 40%
CO[C@H]1C[C@H](Oc2ccnc3c(CN4CCCC4)cc(-c4ccc5c(c4)CN(C4CCC(=O)NC4=O)C5=O)nc23)C1 (stereo partly drawn) [Example 280, 3-(5-(8-((1r,3r)-3-methoxycyclobutoxy)-4-(pyrrolidin-1-ylmethyl)-1,5-naphthyridin-2-yl)-1-oxoisoindolin-2-yl) piperidine-2,6-dione]	10 to 100 nM	60 to 80%	10 to 100 nM	60 to 80%	> 10000 nM	< 20%
CC(C)Nc1n[nH]c2c(CN3CC4COCC4C3)cc(-c3ccc4c(c3F)CN(C3CCC(=O)NC3=O)C4=O)nc12 (stereo not drawn) [Example 288, 3-(4-fluoro-5-(3-(isopropylamino)-7-((tetrahydro-1H-furo[3,4-c]pyrrol-5 (3H)-yl)methyl)-1H-pyrazolo[4,3-b]pyridin-5-yl)-1-oxoisoindolin-2-yl) piperidine-2,6-dione]	1 to 10 nM	> 80%	10 to 100 nM	60 to 80%	> 10000 nM	< 20%
COC1CCN(Cc2cc(-c3ccc4c(c3F)CN(C3CCC(=O)NC3=O)C4=O)nc3c2ccn3C2CS(=O)(=O)C2)CC1 (stereo not drawn) [Example 266, 3-(5-(1-(1,1-dioxidothietan-3-yl)-4-((4-methoxypiperidin-1-yl)methyl)-1H-pyrrolo[2,3-b]pyridin-6-yl)-4-fluoro-1-oxoisoindolin-2-yl) piperidine-2,6-dione formate]	1 to 10 nM	> 80%	1 to 10 nM	> 80%	10 to 100 nM	40 to 60%
CN1CC(n2ncc3c(CN4CCCC4)cc(-c4ccc5c(c4)CN(C4CCC(=O)NC4=O)C5=O)nc32)C1 (stereo not drawn) [Example 261, 3-(5-(1-(1-methylazetidin-3-yl)-4-(pyrrolidin-1-ylmethyl)-1H-pyrazolo[3,4-b]pyridin-6-yl)-1-oxoisoindolin-2-yl) piperidine-2,6-dione]	1 to 10 nM	> 80%	1 to 10 nM	> 80%	10 to 100 nM	60 to 80%
